Reference: patent US20260028352A1, “MACROCYCLIC IMIDAZO [1,2-B] PYRIDAZINE DERIVATIVE, PREPARATION METHOD THEREFOR, AND USE THEREOF” (SUZHOU LANGRUI BIOPHARMACEUTICAL CO., LTD., priority 2022, published 2026)

Key:
Assay type in all cases: cell-based
[1] = tested on: Ba/F3-TPM3-NTRK1-WT cells; test: Growth inhibition of Ba/F3-TPM3-NTRK1-WT cells (Cell Titer-Glo); conditions: 72 hours, CTG; read-out: inhibitory activity IC50 Ba/F3-TPM3-NTRK1-WT
Procedure: (§1) Then the solutions were subjected to a gradient dilution with DMSO: a clean, sterile V-bottom 96-well microplate was placed in the biological safety cabinet. First, 4 μL of DMSO was added to well B2 and 10 μL of DMSO was added to wells B3-B11 respectively; Next, 6 μL of the 10 mM solution was added to well B2. The microplate was pipetted up and down 10 times for mixing. […] Mixing was performed by pipetting up and down 10 times. The solution was diluted in order until well B10. only DMSO was added to well B11 (no compound).
(§2) 6× Compound Solution Preparation (6-fold dilution, × represents dilution factor): (Initial final concentration: 10 μM), a clean, sterile V-bottom 96-well microplate was placed in the biological safety cabinet. 99 μL of cell culture medium was added to each well from B2 to G11. By using a 12-channel pipettor, 1 μL of the compound solution prepared in the previous step was added into the corresponding wells. The solutions were pipetted up and down 10 times to mix the solutions. The highest concentration of compound in this step was 60 μM.
(§3) Treatment of Cells: the above-prepared cell culture plate was taken out of the incubator. 20 μL of compound solution from each well was added to the corresponding cell culture wells. The lowest pipetting speed was used and touching the bottom of the plate was avoided. The culture plate was gently shaked to mix the compound solution, then the plate was returned to the incubator for further culture for 72 hours.
(§4) The highest treatment concentration of the compound was 10 μM. After 72 hours of treatment, the Cell Titer-Glo (CTG) assay was performed. First, the cell culture plate was removed from the CO2 incubator and allowed to stand at room temperature for 30 minutes to ensure uniform temperature of the plate. The pre-prepared Cell Titer-Glo reagent (following the manufacturer's instructions) was taken and allowed to stand at room temperature to thaw. 60 μL of Cell Titer-Glo reagent was added to each well containing cells. The cells were incubated on a horizontal shaker in a dark place at 225 rpm for 1 hour at room temperature. Then, a Tecan Spark microplate reader was used to read the plate using chemiluminescence according to the manufacturer's instructions.

[2] = tested on: Ba/F3-TPM3-NTRK1-G595R cells; test: Growth inhibition of Ba/F3-TPM3-NTRK1-G595R cells (Cell Titer-Glo); conditions: 72 hours, CTG; read-out: inhibitory activity IC50 Ba/F3-TPM3-NTRK1-G595R
Procedure: as §1, §2, §3, §4

[3] = tested on: Ba/F3-TPM3-NTRK1-G667C cells; test: Growth inhibition of Ba/F3-TPM3-NTRK1-G667C cells (Cell Titer-Glo); conditions: 72 hours, CTG; read-out: inhibitory activity IC50 Ba/F3-TPM3-NTRK1-G667C
Procedure: as §1, §2, §3, §4

Row | Structure (SMILES) | IC50 [1] [nM] | IC50 [2] [nM] | IC50 [3] [nM]
1 | CC1Nc2ccc3ncc(n3n2)-c2cc(ccn2)CCOc2ccccc21 (stereo not drawn) [Example I-9, (E)-4-methyl-6-oxa-3-aza-2(3,6)-imidazo[1,2-b]pyridazina-1(2,4)-pyridina-5(1,2)-benzenacyclooctaphane] | 11 | 297 | 308
2 | CC1Nc2ccc3ncc(n3n2)-c2cc(ncn2)COc2ccccc21 (stereo not drawn) [Example I-10, (E)-6-methyl-4-oxa-7-aza-1(3,6)-imidazo[1,2-b]pyridazina-2(4,6)-pyrimidine-5(1,2)-benzenacycloheptaphane] | 4.6 | 378 | 378
3 | CC1Nc2ccc3ncc(n3n2)-c2cc(ncn2)CCOc2ccccc21 (stereo not drawn) [Example I-11, […]] | 2.5 | 419 | 419
4 | C[C@@H]1Cc2ccnc(c2)-c2cnc3ccc(nn23)N2C[C@@H](F)C[C@@H]2c2cc(F)cnc2O1 [Example I-40, (3^2R,3^4S,6R,E)-3^4,4^5-difluoro-6-methyl-5-oxa-2(3,6)-imidazo[1,2-b]pyridazina-1(2,4),4(3,2)-dipyridina-3(1,2)-pyrrolidinacycloheptaphane] | 0.01 | 0.1 | 0.1
5 | Fc1ccc2c(c1)[C@H]1C[C@H](F)CN1c1ccc3ncc(n3n1)-c1cc(ccn1)CO2 [Example I-50, (14bR,16S,E)-13,16-difluoro-14b,15,16,17-tetrahydro-9H-1,19-etheno-4,8-(metheno)benzo[b]imidazo[1,5-h]pyrrolo[2,1-d][1]oxa[5,7,8,11]tetraazacyclopentadecine] | 0.1 | 0.2 | 0.3
6 | Fc1ccc2c(c1)[C@H]1C[C@H](F)CN1c1ccc3ncc(n3n1)-c1cc(ccn1)CCO2 [Example I-54, (3^2R,3^4S,E)-3^4,4^5-difluoro-5-oxa-2(3,6)-imidazo[1,2-b]pyridazina-1(2,4)-pyridina-3(1,2)-pyrrolidina-4(1,2)-benzenacycloheptaphane] | 0.18 | 0.4 | 2.1
7 | Fc1cnc2c(c1)[C@H]1C[C@H](F)CN1c1ccc3ncc(n3n1)-c1cc(ncn1)CCO2 [Example I-72, (3^2R,3^4S,E)-3^4,4^5-difluoro-5-oxa-2(3,6)-imidazo[1,2-b]pyridazina-1(4,6)-pyrimidina-4(3,2)-pyridina-3(1,2)-pyrrolidinacycloheptaphane] | 0.07 | 1.5 | 7.4
8 | Fc1ccc2c(c1)[C@H]1C[C@H](F)CN1c1ccc3ncc(n3n1)-c1cc(cnn1)CCO2 [Example I-92, (3^2R,3^4S,E)-3^4,4^5-difluoro-5-oxa-2(3,6)-imidazo[1,2-b]pyridazina-1(3,5)-pyridazina-3(1,2)-pyrrolidina-4(1,2)-benzenacycloheptaphane] | 0.18 | 0.6 | 4.3

More lines, in order of falling IC50 [1], values ahead:

Row | IC50 [1] [nM] | IC50 [2] [nM] | IC50 [3] [nM] | Structure (SMILES)
9 | 0.3 | 0.9 | 8.5 | Fc1cnc2c(c1)[C@H]1C[C@H](F)CN1c1ccc3ncc(n3n1)-c1nccc(n1)CO2 [Example I-64, (14bR,16S,E)-13,16-difluoro-14b,15,16,17-tetrahydro-9H-4,8-(azeno)-1,19-ethenoimidazo[1,5-h]pyrido[2,3-b]pyrrolo[2,1-d][1]oxa[5,7,8,11]tetraazacyclopentadecine]
10 | 0.25 | 2.3 | 13.9 | Fc1ccc2c(c1)[C@H]1C[C@H](F)CN1c1ccc3ncc(n3n1)-c1nccc(n1)CCO2 [Example I-86, (3^2R,3^4S,E)-3^4,4^5-difluoro-5-oxa-2(3,6)-imidazo[1,2-b]pyridazina-1(2,4)-pyrimidina-3(1,2)-pyrrolidina-4(1,2)-benzenacycloheptaphane]
11 | 0.21 | 0.7 | 13.6 | Fc1ccc2c(c1)[C@H]1C[C@H](F)CN1c1ccc3ncc(n3n1)-c1nccc(n1)CO2 [Example I-62, (14bR,16S,E)-13,16-difluoro-14b,15,16,17-tetrahydro-9H-4,8-(azeno)-1,19-ethenobenzo[b]imidazo[1,5-h]pyrrolo[2,1-d][1]oxa[5,7,8,11]tetraazacyclopentadecine]
12 | 0.2 | 0.9 | 9.4 | Fc1cnc2c(c1)[C@H]1C[C@H](F)CN1c1ccc3ncc(n3n1)-c1cc(ccn1)CCO2 [Example I-56, (3^2R,3^4S,E)-3^4,4^5-difluoro-5-oxa-2(3,6)-imidazo[1,2-b]pyridazina-1(2,4), 4(3,2)-dipyridina-3(1,2)-pyrrolidinacycloheptaphane]
13 | 0.14 | 2.1 | 12.7 | Fc1ccc2c(c1)[C@H]1C[C@H](F)CN1c1ccc3ncc(n3n1)-c1cc(ncn1)CO2 [Example I-58, (14bR,16S,E)-13,16-difluoro-14b,15,16,17-tetrahydro-9H-1,19-etheno-4,8-(metheno)benzo[n]imidazo[5,1-h]pyrrolo[1,2-l][1]oxa[4,6,9,10,12]pentaazacyclopentadecine]
14 | 0.13 | 2.5 | 22.5 | Fc1cnc2c(c1)[C@H]1C[C@H](F)CN1c1ccc3ncc(n3n1)-c1cc(ncn1)CO2 [Example I-60, (14bR,16S,E)-13,16-difluoro-14b,15,16,17-tetrahydro-9H-1,19-etheno-4,8-(metheno)imidazo[5,1-h]pyrido[3,2-n]pyrrolo[1,2-l][1]oxa[4,6,9,10,12]pentaazacyclopentadecine]
15 | 0.12 | 1.1 | 4.6 | Fc1ccc2c(c1)[C@H]1C[C@H](F)CN1c1ccc3ncc(n3n1)-c1cc(ncn1)CCO2 [Example I-70, (3^2R,3^4S,E)-3^4,4^5-difluoro-5-oxa-2(3,6)-imidazo[1,2-b]pyridazina-1(4,6)-pyrimidina-3(1,2)-pyrrolidina-4(1,2)-benzenacycloheptaphane]
16 | 0.06 | 1.6 | 2.8 | Fc1cnc2c(c1)[C@H]1C[C@H](F)CN1c1ccc3ncc(n3n1)-c1cc(cnn1)CO2 [Example I-68, (14bR,16S,E)-13,16-difluoro-14b,15,16,17-tetrahydro-9H-1,19-etheno-4,8-(metheno)imidazo[5,1-h]pyrido[3,2-n]pyrrolo[1,2-l][1]oxa[5,6,9,10,12]pentaazacyclopentadecine]
17 | 0.05 | 0.4 | 1.3 | Fc1ccc2c(c1)[C@H]1C[C@H](F)CN1c1ccc3ncc(n3n1)-c1cc(cnn1)CO2 [Example I-66, (14bR,16S,E)-13,16-difluoro-14b,15,16,17-tetrahydro-9H-1,19-etheno-4,8-(metheno)benzo[n]imidazo[5,1-h]pyrrolo[1,2-l][1]oxa[5,6,9,10,12]pentaazacyclopentadecine]
18 | 0.01 | 0.1 | 0.3 | C[C@@H]1Cc2ccnc(c2)-c2cnc3ccc(nn23)N2C[C@@H](F)C[C@@H]2c2cc(F)ccc2O1 [Example I-39, (3^2R,3^4S,6R,E)-3^4,4^5-difluoro-6-methyl-5-oxa-2(3,6)-imidazo[1,2-b]pyridazina-1(2,4)-pyridina-3(1,2)-pyrrolidina-4(1,2)-benzenacycloheptaphane]
